{
  "source": "patent US20030104603A1",
  "about": "“Protein” (priority 2001, published 2003)",
  "system": "mouse EST cluster TC20248 (CitE homolog gene) in white adipose tissue",
  "assay": "Affymetrix GeneChip analysis of white adipose tissue mRNA from β3-agonist treated mice",
  "type": "in vivo",
  "details": "male C57B1/6J mice, CL 316,243 1 mg/kg injected every 12 h, 2 doses, white adipose tissue collected at 24 h, versus saline control, Mu19K GeneChips",
  "procedure": "Male C57B1/6J mice, 12 weeks old, were housed under conditions of ambient temperature and free access to water and chow. Either the β3-selective agonist CL 316,243 (1mg/kg) or saline was injected every 12h with 2 doses during a total period of 24 hours. The animals were decapitated 24 h after the experiment was started, and the white adipose tissue was quickly collected and immediately frozen into liquid nitrogen.\nPolyA^+ mRNAs were extracted from white adipose tissue from control and β3-agonist treated mice respectively. They were reverse transcribed using a T7-tagged oligo-dT primer and double-stranded cDNAs were generated. These cDNAs were then amplified and labeled using In vitro transcription (IVT) with T7 RNA polymerase and biotinylated nucleotides. The populations of cRNAs obtained after IVT were purified and fragmented by heat to produce a distribution of RNA fragment sizes from approximately 35 to 200 bases. […] The cartridges were scanned using a Hewlett-Packard confocal scanner and the images were analyzed with the GeneChip 3.1 software (Affymetrix). The identity of the genes represented on the Affymetrix GeneChips was assessed by performing searches using BLAST (Altschul et al., J. Molec. Biol., 1990, 215, 403-410), which is incorporated herein by reference in its entirety) on available protein sequence databanks. […]",
  "data": [
    {"smiles": "C[C@H](Cc1ccc2c(c1)OC(C(=O)[O-])(C(=O)[O-])O2)NC[C@H](O)c1cccc(Cl)c1.[Na+].[Na+]", "note": "[CL 316,243]", "values": [
      {"measurement": "transcriptional change of the CitE homolog gene (TIGR Mouse Gene Index TC20248)", "value": "down-regulated"},
      {"measurement": "transcriptional change of the CitE homolog gene (TIGR Mouse Gene Index TC20248)", "setting": "listed as β3-agonist", "value": "downregulated by a factor of two"}
    ]}
  ]
}
